Columns and labels:
[1] = Ex-vivo rat intestinal fluid stability assay; format: in vitro ADME; set-up: half-life: dose or concentration left out as unconfirmed; details: 37° C.; for half-life: rat intestinal (jejunum) fluid, read-out: disappearance half-life (T1/2); for prodrug converted into its parent drug: after 30 minutes of incubation
Description: Phosphate prodrugs disclosed herein were designed to be cleaved by alkaline phosphatase(s) that are present on the apical brush-border membranes of the intestine, after which the more hydrophobic parent compound is readily absorbed. Phosphatases are also present in the liver and in the systemic circulation. In order to test the speed of cleavage of the prodrug into the parent drug, […] solutions of each of the test compounds were incubated in rat intestinal (jejunum) fluid. Samples were taken at times=0, 5, 15, 30 and 60 min and the mixtures were quenched by the addition of acetonitrile containing an internal standard. Samples were analyzed by full scan LC/MS. The following protocol was used:
10 mM DMSO stock solutions were thawed or prepared for the positive control (Enalapril) and each test article. Internal standard (IS) crash solution in acetonitrile (ACN) with 20 ng/ml of Compound Z, depicted below, was prepared. Stock (250 uM) was prepared from 10 mM in 50/50 acetonitrile/H2O. Rat intestinal fluid vials were thawed in a water bath at rt.
In a 96-well, 1 ml plate, 48 uL of rat intestinal fluid was aliquoted in triplicate for each time point. The t0 (“0 min”) time point was prepared separately by adding 450 ul of IS crash solution to 48 ul of intestinal fluid, then adding 2 uL of test compound. 2 ul of the 250 uM substock was added to initiate the reaction at 5 min, 15 min, 30 min, and 60 min. The plate prepared in the above steps was covered with a plastic or foil seal and was set in the 37° C. incubator, lightly shaking. For each time point, 450 ul of IS crash solution was added to quench the reaction. The plates were centrifuged at 4000 RPM for 10 minutes at 4° C. 50 ul of supernatant was transferred into 50 ul of H2O and analyzed using LC/MS.
The disappearance of the prodrug and the conversion to the parent were monitored over time.

[2] = cited from earlier work
[3] = known; cited from earlier work
[4] = human microsomes, after 15 min; cited from earlier work

Structure (SMILES)	prodrug remaining uncleaved ([1]; after 60 minutes of incubation)	half-life [1] [min]	human half-life (from published data) [2] [min]	cleavage to the parent drug in vivo [3]	prodrug converted into its parent drug [1]	prodrug converted into its parent drug / cleaved ([1]; after 60 minutes of incubation)	quantifiable fostamatinib in subjects ([2]; human clinical trials, oral dosing, after the 2-hour time point)	hydrolysis of prodrug [4]
O=P(O)(O)OC(Cn1cncn1)(Cn1cncn1)c1ccc(F)cc1F [fosfluconazole]	About 80%	211	90 to 150	known to cleave slowly to the parent drug in vivo				
O=C1NC(c2ccccc2)(c2ccccc2)C(=O)N1COP(=O)(O)O [fosphenytoin]	no prodrug could be detected	5	8 to 15	known to cleave to the parent drug quickly in vivo	More than 80%			
COc1cc(Nc2ncc(F)c(Nc3ccc4c(n3)N(COP(=O)(O)O)C(=O)C(C)(C)O4)n2)cc(OC)c1OC [fostamatinib]		34		known to cleave to the parent drug quickly in vivo	About 50%	About 80%	no quantifiable fostamatinib was observed	fully hydrolized
O=P(O)(O)OC1(CNc2nc(-c3cc(-c4ccon4)n(Cc4ccccc4F)n3)ncc2F)CCOCC1 [Compound I-3]	less than 10%				about 25%			

Source: patent US10927136B2, “Phosphorus prodrugs of pyrazolo-substituted pyrimidine sGC stimulators” (Cyclerion Therapeutics, Inc., priority 2016, dated 2021)
